Reference: PubChem BioAssay (NCI)
“And” between values parts separate entries of the source, which are not always exact repeats. Identical values can stand only once.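 Test compounds were applied to cells in 96-well plates for 48 hours at 5 doses. The concentration for 50% growth inhibition is given as GI50. The concentration for full growth arrest is given as TGI.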

Experiments:
Assay in all cases: NCI anticancer screen, dose series, 48 h
MCF7 breast = test system: MCF7 breast
CCRF-CEM leukemia = test system: CCRF-CEM leukemia
SF-295 CNS = test system: SF-295 CNS
HT29 colon = test system: HT29 colon
M14 melanoma = test system: M14 melanoma
MOLT-4 leukemia = test system: MOLT-4 leukemia
SK-OV-3 ovarian = test system: SK-OV-3 ovarian
SF-539 CNS = test system: SF-539 CNS
TK-10 renal = test system: TK-10 renal
OVCAR-3 ovarian = test system: OVCAR-3 ovarian

SMILES | GI50 (MCF7 breast) | TGI (MCF7 breast) | GI50 (CCRF-CEM leukemia) | TGI (CCRF-CEM leukemia) | GI50 (SF-295 CNS) | GI50 (HT29 colon) | TGI (HT29 colon) | GI50 (M14 melanoma) | TGI (M14 melanoma) | GI50 (MOLT-4 leukemia) | TGI (MOLT-4 leukemia) | GI50 (SK-OV-3 ovarian) | TGI (SK-OV-3 ovarian) | GI50 (SF-539 CNS) | TGI (SF-539 CNS) | GI50 (TK-10 renal) | TGI (TK-10 renal) | GI50 (OVCAR-3 ovarian) | TGI (OVCAR-3 ovarian) | TGI (SF-295 CNS)
COc1ccc(C2=C(c3ccc(OC)cc3)C(=O)OC2)cc1 | 492 nM | 16.2 µM | 3.29 µM | 18.5 µM | 549 nM | 0.437 µM | > 100 µM | 1640 nM | 12.4 µM | 1.29 µM | 23.8 µM | 2.2 µM | > 100 µM | 745 nM | 6.67 µM | 1.1 µM | 8.01 µM | 216 nM | 0.712 µM | –
COc1ccc(-n2cc(-c3cc(OC)c(OC)c(OC)c3)nc2SCc2cccc(C#N)c2)cc1OC | 66200 nM | > 100 µM | > 100 µM | > 100 µM | > 100000 nM | 14.1 µM | > 100 µM | > 100000 nM | > 100 µM | 51.7 µM | > 100 µM | > 100 µM | > 100 µM | 90300 nM | > 100 µM | > 100 µM | > 100 µM | 65000 nM | > 100 µM | > 100 µM
Nc1c(C(=O)c2cccc(-c3cccnc3)c2)cnn1-c1ccc(F)cc1 | > 25000 nM | > 25 µM | > 25 µM | > 25 µM | > 25000 nM | > 25 µM | > 25 µM | > 25000 nM | > 25 µM | > 25 µM | > 25 µM | > 25 µM | > 25 µM | > 25000 nM | > 25 µM | > 25 µM | > 25 µM | > 25000 nM | > 25 µM | > 25 µM
O=S(=O)(F)Cc1ccccc1 | – | > 100 µM | – | > 100 µM | – | – | > 100 µM | – | > 100 µM | – | > 100 µM | – | > 100 µM | – | > 100 µM | – | > 100 µM | – | > 100 µM | > 100 µM
COc1ccc2c(=O)c(-c3cc(OC)c(OC)cc3OC)coc2c1 | – | > 100 µM | – | > 100 µM | – | – | > 38.3 µM | – | > 100 µM | – | > 100 µM | – | > 44.1 µM | – | 43.1 µM | – | > 100 µM | – | 15.3 µM | 12.5 µM
COC(=O)c1csc(-c2csc(CCNC(=O)OC(C)(C)C)n2)n1 | – | > 100 µM | – | > 100 µM | – | – | > 100 µM | – | > 100 µM | – | > 100 µM | – | > 100 µM | – | > 100 µM | – | > 100 µM | – | > 100 µM | > 100 µM
NC(CSC(c1ccccc1)(c1ccccc1)c1ccccc1)C(=O)O (stereo not drawn) | 665 nM and 416 nM | 67.8 µM and > 100 µM | 1.59 µM and 0.942 µM | 19.4 µM and > 100 µM | 485 nM and 522 nM and 2650 nM | 3.71 µM and 3.28 µM | 27.3 µM and 14.6 µM | 426 nM and 389 nM | 6.01 µM and 16.2 µM and 27.5 µM | 7.54 µM and 5.01 µM | 83.8 µM and 15.9 µM and > 100 µM | 0.425 µM | 14.8 µM and > 100 µM | 874 nM and 459 nM | 10.6 µM and 3.01 µM and 3.26 µM | 6.22 µM | 83.5 µM | 2460 nM and 2180 nM | 9.48 µM and 27.9 µM and 13 µM | –
CN(C)S(=O)(=O)c1cccc(C(=O)Nc2nc(-c3ccc(F)c(F)c3)cs2)c1 | 6010 nM | > 65 µM | 10.7 µM | > 100 µM | 2580 nM | 14 µM | > 100 µM | 23500 nM | > 100 µM | 3.52 µM | > 55.2 µM | 35.7 µM | > 100 µM | 15300 nM | 58 µM | 18.1 µM | > 100 µM | 18400 nM | > 95.4 µM | 26.4 µM
